Measurements taken from ChEMBL document CHEMBL3507680, “University of Dundee, Gates Library screen for HepG2 cell viability”.

Experiment: Human HepG2 cell viability assay in 384 well format
Format: toxicity, cell-based
Set-up: dose 125 nL, time 70.5 hour; concentration not given beside the values
Details: HepG2 cells, read-out: Inhibition

| Structure (SMILES) | cytotoxicity at 70.5 h [%] |
| --- | --- |
| O=C(NCCc1ccn(-c2ccccc2)n1)N1CCCC(CO)C1 (stereo not drawn) | 1.65 |
| COCCN1CCC(C(=O)c2cc(F)ccc2F)CC1 | -2.7 |
| CSc1nccc(-c2cccc(-c3ccn(CC4COCCO4)n3)c2)n1 (stereo not drawn) | -13.8 |
| NC(=O)NCC1CCCCN1C(=O)c1ccc(Br)s1 (stereo not drawn) | -8.99 |
| CCc1cnc2c(c1Nc1ccncc1)c(=O)n(C)c(=O)n2C | 20.3 |
| CC(NCCN1CCN(C(=O)C2CCCC2)CC1)c1ccccn1 (stereo not drawn) | -2.99 |
| Oc1cc(CCC2CCCCN2)cc(-c2cccnc2)c1 (stereo not drawn) | -0.0954 |
| Cc1cc(NC(=O)CNC2CCCN(c3cccnn3)C2)on1 (stereo not drawn) | 43.8 |
| Cc1nn(C)c(Cl)c1C1CCCN1CC(=O)NC1CCCC1 (stereo not drawn) | 2.37 |
| c1cnc(N2CCCC3(CCN(Cc4cccs4)C3)C2)nc1 (stereo not drawn) | -6.41 |
| COCCN1CCC(CNC(=O)Nc2ccc(-c3ccccc3)cc2)C1 (stereo not drawn) | 1.85 |
| O=C(CCCNC(=O)NCC1CCCO1)Nc1ccc(Cl)cc1 (stereo not drawn) | -8.55 |
| COc1ccc(CN(C)[C@@H]2CN(C(=O)c3cnn(C)c3)C[C@H]2O)cc1 | -6.51 |
| CSc1ccc(C(=O)C2CCCN(C(=O)CCn3cnnn3)C2)cc1 (stereo not drawn) | 14.5 |
| Cc1cccc(C(=O)N2CC(Cc3nccc4ccn(C)c34)C2)n1 | 1.37 |
| CN(C)CCNC(=O)c1nc2c(s1)CCCN2C(=O)C1CC1 | -2.21 |
| Cc1cc2cc(C(=O)N3CC[C@H](O)[C@]4(CCCO4)C3)ccc2o1 | -18.1 |
| Cc1cc(C(=O)N2C[C@H]3CC[C@@H]2CN(C)C3)ccc1Cl | 29.4 |
| CS(=O)(=O)N1CCCC12CCCN(C(=O)c1ccnnc1)C2 (stereo not drawn) | -11.3 |
| CC(=O)NCC1CCN(C(=O)c2c[nH]c3cc(Cl)ccc23)CC1 | -10.5 |
| O=C(Nc1c(N2CCCC2)cccc1N1CCCC1)c1cnsn1 | -16 |
| CCCc1n[nH]c(C2CN(C(=O)C3=COCCC3)CCO2)n1 (stereo not drawn) | -16.3 |
| Cc1cccnc1C(=O)N1CCCCC1c1[nH]ncc1S(C)(=O)=O (stereo not drawn) | 1.39 |

| Structure (SMILES) | cytotoxicity at 70.5 h [%] |
| --- | --- |
| Cn1ccnc1SCCNc1ccnc(C(F)(F)F)n1 | -2.76 |
| COCC(=O)N1CCC(O)(CN2CCN(c3ccccc3)CC2)C1 (stereo not drawn) | -1.6 |
| NC(=O)[C@H]1CCCN(c2nccc(-c3ccncc3)n2)C1 | -0.804 |
| CN(CCCc1n[nH]c(N)c1C#N)C(=O)Nc1cc(Cl)cc(Cl)c1 | -11.9 |
| COCCn1c(C(=O)NC(C(N)=O)C(C)C)cc2ccccc21 (stereo not drawn) | -6.02 |
| Nc1ncc(CN2C[C@H](C3CC3)[C@@H](N)C2)cn1 | -5.66 |
| CC(C)N1CCC(Cc2cc(-c3ccccc3C(=O)O)ncn2)CC1 | 16.5 |
| O=c1[nH]c2c(c(=O)n1C1CCCCC1)CCC2Nc1ccccc1 (stereo not drawn) | 6.54 |
| CN(Cc1ccccn1)C1CCC[C@@H]2CN(CC3CC3)C[C@H]12 (stereo partly drawn) | 17.7 |
| COc1cccc(-c2nc3c([nH]2)CCNC3)c1F | -12.1 |
| O=C(N[C@H]1COC[C@@H]1N1CCCC1)c1csc(-c2cccs2)n1 | -10.9 |
| CC(C(=O)N1CCN(C(=O)c2ccc(F)cc2F)CC1)n1ccnc1 (stereo not drawn) | -4.77 |
| O=C(CCc1cccnc1)N1CCC2(CCN(CC3CCCC3)C2)C1 (stereo not drawn) | 23.3 |
| Cn1ccc(C(=O)N2CCN(CC(O)C(C)(C)C)CC2)cc1=O (stereo not drawn) | -5.62 |
| COC1CCN(C(=O)Nc2ccccc2)CC(=O)N(C)c2ccccc21 (stereo not drawn) | -6.71 |
| Cc1[nH]ccc1C(=O)N1CCCC(c2nccn2Cc2cscn2)C1 (stereo not drawn) | 20.2 |
| CN(C)C(=O)N1CC2(CCN(S(C)(=O)=O)CC2)c2ccccc21 | -1.58 |
| COCCC(=O)N1CCN(CC2CC2)c2ccccc21 | -3.57 |
| CC(=O)Nc1cc2c(cc1C)OCO2 | 21.5 |
| O=C([C@H]1CC[C@@H]2[C@@H](CCN2Cc2ccc(F)cc2)O1)N1CCCO1 | -9.2 |
| CS(=O)(=O)N1CCO[C@@H]2CN(Cc3ccc(F)cc3)C[C@@H]2C1 | -6.95 |
| O=C(OC1CCC1)c1ncccc1C(F)(F)F | -3.86 |
| COc1nn(C)c2c1CCCN(C(=O)c1ccsc1)C2 | -108 |

| Structure (SMILES) | cytotoxicity at 70.5 h [%] |
| --- | --- |
| COc1ccc(CCNC(=O)c2ccc(=O)n(C)c2)c(Cl)c1 | -7.56 |
| C[C@@H]1CN(CCC(=O)N(C)Cc2ccccc2)C[C@@]1(O)C1CCC1 | -7.64 |
| CCn1cc(S(=O)(=O)NC(CO)Cc2ccccc2)cn1 (stereo not drawn) | -7.27 |
| O=C1COc2ccc(C(=O)NS(=O)(=O)c3cc(F)ccc3F)cc2N1 | -8.54 |
| COc1c(C)cnc(CN2CCC(N(C)C(=O)C(C)OC)CC2)c1C (stereo not drawn) | 7.6 |
| Cc1ccc(N2CC[C@H]3C[C@H](C(=O)NCc4ccco4)O[C@@H]3C2)cc1 | 2.5 |
| CN(C)C(=O)CN1C[C@@H]2CC[C@H](C1)N(Cc1cc(F)ccc1F)C2 | 7.45 |
| O=C(NCc1ccccc1)c1nn(C2CCS(=O)(=O)C2)c2c1CCCC2 (stereo not drawn) | 4.17 |
| O=C(COc1cccnc1)N1CCCC(n2cccn2)C1 (stereo not drawn) | -2.58 |
| CSc1ncccc1C(=O)NCC(c1ccco1)N(C)C (stereo not drawn) | 4.37 |
| O=C(NC1CCC1)c1n[nH]c2c1CNCC2 | -8.89 |
| CCn1c(C)cc(C(=O)Nc2ccccc2CN(C)C(C)=O)c1C | -9.11 |
| Cc1cccc(C(=O)N2CCC3(CC2)CC(c2cnn(C)c2)CO3)c1 (stereo not drawn) | -15 |
| CCn1nc(CNC(C)(C)CO)c(-c2ccccc2)n1 | -1.62 |
| c1cc(CN2CCO[C@H]3[C@H](OCCN4CCCC4)CC[C@@H]32)ccn1 | -11.7 |
| NC(=O)C1CCN(c2nc3nccc(-c4cccnc4)c3c(=O)[nH]2)CC1 | -2.94 |
| COc1no[n+]([O-])c1-c1ccccc1 | 2.46 |
| O=C(c1c(F)cccc1F)N1CCC[C@@H]1Cn1c(=O)oc2ccccc21 | -0.473 |
| CN(C)CC(=O)N1CCN(c2cc(N3CCCC3CO)ncn2)CC1 (stereo not drawn) | -6.08 |
| CN(CC(C)(CO)CO)C(=O)Nc1cc(Cl)cc(Cl)c1 | -4.43 |
| COc1cccc(COCC(=O)N2CCCC(n3cncn3)C2)c1 (stereo not drawn) | -1.04 |
| CNC(=O)[C@@]12CCO[C@@H]1CCN(Cc1ccc3c(c1)OCO3)C2 | 9.37 |
| O=C(Cc1cccc(O)c1)N1CCCC(O)(CN2CCCC2)CC1 (stereo not drawn) | -6.1 |

| Structure (SMILES) | cytotoxicity at 70.5 h [%] |
| --- | --- |
| Cn1cnc2c1C(COCC1CC1)CN(C(=O)c1cscn1)C2 (stereo not drawn) | -5.14 |
| COc1ccc(S(=O)(=O)N2CCOC(Cn3ccnc3)C2)cc1 (stereo not drawn) | -8.46 |
| CC(C)c1noc(-c2ccc(NCCCN3CCCC(O)C3)nc2)n1 (stereo not drawn) | -6.37 |
| COCCOCC1CCN(C(=O)c2ccc3[nH]cnc3c2)C1 (stereo not drawn) | 2.45 |
| O=C(Cc1ccco1)N1C[C@H]2CCC[C@@]2(COc2cccnc2)C1 | -5.14 |
| Cc1nnc2n1CCN(CC(=O)NC(C)c1cc3ccccc3o1)C2 (stereo not drawn) | 2.01 |
| COCCN1CCC2(CC1)CC(c1cccnc1)CO2 (stereo not drawn) | -4.14 |
| Cc1nc(CCC(=O)NC2CCC2)cc(C2CCCNC2)n1 (stereo not drawn) | -9.96 |
| Cc1noc(C)c1CN1CCOCC12CCN(c1ncccn1)CC2 | -8.87 |
| CN(C)[C@H]1CN(C(=O)c2ccc3sc4c(c3c2)CCNC4=O)C[C@@H]1O | -1.45 |
| Cc1cccc(C)c1CNC1(CCO)CCOCC1 | -16 |
| CCn1cc2c(n1)C(COCC1CC1)CN(c1ccc(C)nn1)C2 (stereo not drawn) | -16.7 |
| Clc1cccc(C(CNCc2ccccn2)N2CCOCC2)c1 (stereo not drawn) | 48.6 |
| O=C(NCCCNc1ccccn1)NCC1CCS(=O)(=O)C1 (stereo not drawn) | -8.26 |
| CCN1CCc2c(sc3c2C(=O)NC(/C=C\c2ccccc2)N3)C1 (stereo not drawn) | 16.4 |
| COc1ccc(-c2nnc(CNCCn3cc(C)cn3)o2)cc1 | 14.6 |
| Cc1csc2ncc(-c3ccnc(N4CCCC4)n3)c(=O)n12 | -2.62 |
| O=C(NCc1csc(Br)c1)N1CCOCC1 | -4.76 |
| COCCN1CCCC(c2ncc(C(=O)N(C)C)c(C)n2)C1 (stereo not drawn) | -1.17 |
| COCCOCC(=O)Nc1ccc(Br)cc1F | -11 |
| Cc1ncsc1CN1Cc2cn(C)nc2C(COCC2CC2)C1 (stereo not drawn) | 11.6 |
| Cc1nccc(CN2CC[C@@]3(CCCN3Cc3ccccc3)[C@@H](O)C2)n1 | 1.99 |
| CCC(O)CN(C)Cc1nnc2ccccn12 (stereo not drawn) | 9.61 |

| Structure (SMILES) | cytotoxicity at 70.5 h [%] |
| --- | --- |
| CN(C)C[C@@H]1CN(C(=O)Cc2ccc3ccccc3c2)C[C@@H]1CO | -8.64 |
| C[C@@H]1CN(C(=O)CCCN2CCOCC2)C[C@@]1(O)C1CC1 | -5.23 |
| COC(=O)c1cccc(C(=O)N(C)Cc2cccc(F)c2)c1 | 5.14 |
| Cc1c(NCc2cccc(C#N)c2)cccc1S(=O)(=O)NC1CC1 | 4.95 |
| COC(=O)Cc1cn2cc(C(F)(F)F)ccc2n1 | 13.2 |
| Cc1cc(C2CCCN2Cc2cccc(C(=O)Nc3nccs3)c2)no1 (stereo not drawn) | -14.5 |
| CC(=O)N(C)CCc1nc(-c2cc(C(N)=O)co2)cs1 | -6.25 |
| COCc1cccc(NC(=O)N(C)Cc2ncc(C)c(OC)c2C)c1 | -3.88 |
| O=C(CCOCC(F)(F)F)N1CCCC(n2ccnc2)C1 (stereo not drawn) | -6.65 |
| CCOc1ccnc(N2CCN(C(=O)c3ccncc3)CC2)n1 | -9.15 |
| CC(Cn1cncn1)NC(=O)NCc1csc(N(C)C)n1 (stereo not drawn) | -8.98 |
| CC(C)c1nn(C)c(Cl)c1CNCC(O)c1cccc(F)c1 (stereo not drawn) | -10.3 |
| O=C1CCCN1CCCN1CCCCC1Cn1cncn1 (stereo not drawn) | -5.51 |
| CCC(NC(=O)CN(C)Cc1ccc(C)o1)c1ccc(C)cc1 (stereo not drawn) | -10.3 |
| CC(C)N(C)S(=O)(=O)N(C)Cc1ccc2c(c1)OCCO2 | 4.58 |
| CN1CCC(N(C)C(=O)CSc2ccc(F)c(F)c2)C1=O (stereo not drawn) | -2.06 |
| COc1ccc(C(=O)NS(=O)(=O)c2cc(Cl)sc2Cl)cc1OC(F)F | -3.93 |
| O=C(c1ccc(S(=O)(=O)NCC(F)F)cc1)N1CC[C@H]2CNC[C@H]21 | 0.673 |
| Cc1ccc(C(=O)NCCCN2CCOCC2)c(Cl)c1 | -6.07 |
| CN(C)CCC1CCN(c2cc(N3CCCC3CO)ncn2)CC1 (stereo not drawn) | 11.7 |
| Cc1[nH]nc(CCC(=O)NCC2CCN(C3CCCCC3)C2)c1C (stereo not drawn) | -4.71 |
